# Laboratory results taken from patent US20250314665A1, “BIOMARKERS FOR CEREBRAL METABOLIC DISORDERS, AND DIAGNOSTIC METHODS USING THEREOF” (COMMISSARIAT A L'ENERGIE ATOMIQUE ET AUX ENERGIES …, priority 2022, published 2025).
# “Also recorded” adds a separate entry of the source.
# What was measured:
# Type in all cases: in vivo, mouse
# CrT KO mice [1] = experiment: Western blotting of dissected brain tissue after DCE treatment
# Protocol: Western blotting was used to detect the abundance of PLCB1 and the two inhibitors of NFkB, IKBα and IKBβ, in the dissected brain tissue. Briefly, brain tissue was homogenized in freshly prepared lysis buffer containing 20 mM Trizma-Base, 150 mM NaCl, pH 7.4 (Sigma-Aldrich, Saint-Quentin Fallavier, France) and supplemented with 1% Triton X-100, 4% of complete Protease Inhibitor Cocktail and 20% of a mix of anti-phosphatase inhibitors using a Precellys Evolution tissue homogenizer. The samples were then centrifuged first at 2500×g (15 min) and then at 10 000×g (20 min) on homogenates to produce lysate for electrophoresis. Proteins (10 to 20 μg) and protein standard in Laemmli buffer were loaded on 4%-15% CRITERION TGX STAIN-FREE protein gel in running buffer TGS 1×(all from Bio-Rad, Marnes-la-Coquette, France) and transferred to a 0.2 μm PVDF membrane with the Trans-Blot Turbo RTA Midi Transfer Kit (Bio-Rad, Marnes-la-Coquette, France). Membranes were blocked for 30 min in 5% low-fat milk in TBS-Tween 20 0.1% at room temperature. Blots were probed with specific primary antibodies overnight at 4° C. and detected by horseradish peroxidase secondary antibodies diluted 1:5 000 or 1:50 000 in 5% low-fat milk in TBS-Tween 20 0.1% at room temperature. For protein detection, membranes were exposed to the ECL prime Western blotting system (Amersham, UK) or Clarity western ECL substrate in a chemidoc touch imaging system for a measurable exposure time (Bio-Rad, Marnes-la-Coquette, France) and quantified with Image Lab Software (Bio-Rad, Marnes-la-Coquette, France). The following antibodies and dilutions were used: anti-PLCB1 (1/1000, Abcam, ab182359), anti-IKBα (1/500, Cell Signaling Technology, 4812S), anti-IKBβ (1/500, Cell Signaling Technology, 15519S), anti-PSD95 (1/2000, Merck, MABN68), and anti-tubulin (1/2000, Sigma-Aldrich, T6199), anti-KIF1A (1/1000, Abcam, ab180153).
# (§1) DCE was intranasally administered (Ullio-Gamboa G, et al. Dodecyl creatine ester-loaded nanoemulsion as a promising therapy for creatine transporter deficiency. Nanomedicine 14, 1579-1593 (2019)) to Slc6a8^−/y for 30 days, once a day at 4 mg/g of body weight, whilst the control groups were wild-type (WT) and vehicle-treated (Veh) Slc6a8^−/y mice, at N=8/group. Cognitive performance was evaluated using the object recognition test, the Y-maze, and the Morris water maze (MWM). Then, proteomics was performed on four different brain regions: cortex, hippocampus, cerebellum and brainstem; and the key protein abundances were correlated with behavioral performance, identifying several mechanistic pathways.
# CrT KO mice [2] = experiment: Label-free shotgun proteomics of brain regions after DCE treatment
# Protocol: Total protein (15 μg) was extracted from different brain regions and mixed with lithium dodecyl sulfate lysis buffer (Invitrogen) and incubated at 99° C. for 5 min, and then separated by a short electrophoresis migration (5 min) at 200 V on NuPAGE 4-12% Bis-Tris gel with MES/SDS 1× (Invitrogen) as running buffer. Gels were stained with SimplyBlue SafeStain (Thermo) for 5 min followed by an overnight wash in water with gentle agitation. The polyacrylamide band containing the whole proteome from each sample was excised and treated as recommended (Hartmann E M, Armengaud J. N-terminomics and proteogenomics, getting off to a good start. Proteomics 14, 2637-2646 (2014)). Proteins were in-gel proteolyzed with trypsin gold (Promega) in the presence of 0.01% of Protease Max surfactant (Promega) at 50° C. for 60 min. From the resulting peptide fraction (50 μL), a volume of 1 μL corresponding to approximately 300 ng of peptides was analyzed by liquid chromatography-tandem mass spectrometry (LC-MS/MS) using an Ultimate 3000 nano-LC system coupled to a Q-Exactive HF mass spectrometer (Thermo Scientific) operated as described previously (Hartmann E M, Armengaud J. N-terminomics and proteogenomics, getting off to a good start. Proteomics 14, 2637-2646 (2014)). Peptides were loaded on a reverse-phase PepMap 100 C18 μ-precolumn (5 μm, 100 Å, 300 μm i.d.×5 mm, Thermo Fisher), and then resolved on a nanoscale PepMap 100 C18 nanoLC column (3 μm, 100 Å, 75 μm i.d.×50 cm, Thermo Fisher) at a flow rate of 0.2 μL·min^−1 using a 90-min gradient (4% B for 0 to 3 min, 4-25% B from 3 to 78 min and 25-40% B from 78 to 93 min) with mobile phase A corresponding to 0.1% HCOOH/100% H2O and mobile phase B corresponding to 0.1% HCOOH/80% CH3CN/20% H2O). The mass spectrometer was operated in Top20 mode, with a scan range of MS acquisition from 350 to 1800 m/z and selection and fragmentation using a 10 s dynamic exclusion time for the 20 most abundant precursor ions. Only ion precursors with a 2+ or 3+ charge were selected for High-energy collisional dissociation (HCD) fragmentation performed at a normalized collision energy of 27 eV.
# MS/MS spectra were assigned using the Mascot Daemon software version 2.6.1 (Matrix Science) and the Mus musculus SwissProt database comprising 17,096 protein sequences. Peptide tolerance, MS/MS fragment tolerance, and the maximum of missed cleavages were set at 5 ppm, 0.02 D and 2, respectively. Carbamidomethylation of cysteine was considered as fixed modification. Oxidation of methionine was taken into account as variable modification. Peptides identified at a p-value≤0.05 in homology threshold mode and proteins identified with at least two distinct peptides were selected (false discovery rate below 1%).
# In-house script was constructed, using R programming language, to identify the differentially expressed proteins between the […] four different regions of the brain: cortex, cerebellum, hippocampus and brainstem. Initially, the proteomics data were normalized using the Variance Stabilizing Normalization (Motakis E S, Nason G P, Fryzlewicz P, Rutter G A. Variance stabilization and normalization for one-color microarray data using a data-driven multiscale approach. Bioinformatics 22, 2547-2553 (2006)). Proteins with at least 10 MS/MS spectra across all conditions were retained. Unsupervised variation filter was then applied to the proteomics data (Hamoudi R A, et al. Differential expression of NF-kappaB target genes in MALT lymphoma with and without chromosome translocation: insights into molecular mechanism. Leukemia 24, 1487-1497 (2010)) where any 8 samples with MS/MS detected protein were included. […]
# CrT KO mice [3] = experiment: Object recognition test (ORT) in DCE-treated CrT KO mice
# Protocol: (§2) Treatment continued during behavioral testing, which took two weeks, for a total of 30 days of treatment. The testing order for behavioral assessment performed in the same mice consisted of: object recognition test (ORT) 24 h (3 days), Y maze (1 day), Morris water maze (MWM) with hidden platform (7 days).
# The day before testing, mice were familiarized with the empty arena for 10 min. The object recognition test (ORT), which is based on the spontaneous tendency of rodents to spend more time exploring a novel object than a familiar one, measures short- and long-term memory and consists of a sample and a testing phase. During the sample phase, mice were placed in the arena with two identical objects placed in diagonally opposite corners of the arena (about 6 cm from the walls) for 10 min. The test phase was 24 hours after the sample phase. Mice were returned to the arena with an identical copy of one of the familiar objects and a new object placed in the same position. The mice explored the objects for 5 min.
# as §1
# CrT KO mice [4] = experiment: Morris water maze (MWM) in DCE-treated CrT KO mice; conditions: DCE intranasal 4 mg/g once a day; hidden platform, 7 days
# Protocol: as §2
# Mice were trained for 4 trials per day and for a total of 7 days in a circular water tank (diameter, 120 cm; height, 40 cm), filled with water (23° C.) rendered opaque by the addition of a non-toxic white paint to a depth of 25 cm. […] Mice were allowed up to 60 s to reach the escape platform, and their swimming paths were automatically recorded by the Noldus Ethovision system. On the last trial of the last training day, mice received a probe trial, during which the escape platform was removed from the tank and the swimming paths were recorded over 60 s while mice searched for the missing platform
# DCE was intranasally administered (Ullio-Gamboa G, et al. Dodecyl creatine ester-loaded nanoemulsion as a promising therapy for creatine transporter deficiency. Nanomedicine 14, 1579-1593 (2019)) to Slc6a8^−/y for 30 days, once a day at 4 mg/g of body weight, whilst the control groups were wild-type (WT) and vehicle-treated (Veh) Slc6a8^−/y mice, at N=8/group. Cognitive performance was evaluated using the object recognition test, the Y-maze, and the Morris water maze (MWM). […]
# CrT KO mice [5] = experiment: Y maze spontaneous alternation in DCE-treated CrT KO mice
# Protocol: as §2
# Mice were placed in the center of the maze and movement was recorded for 8 min. The number of arm entries (all four limbs within the arm) and the number of triads (three arm entries) were video-recorded in order to calculate the alternation percentage defined as the number of triads divided by the number of possible alternations (total arm entries minus 2) and then multiplying by 100.
# as §1
compound,measurement,setting,value
"CCCCCCCCCCCCOC(=O)CN(C)C(=N)N [DCE, dodecyl creatine ester]",PLCB1 protein abundance by Western blot,"CrT KO mice [1]; brain cortex, DCE-treated CrT KO mice, p=0.0004",significant increase; also recorded: significantly increased
same,IκBα protein level by Western blot,"CrT KO mice [1]; brain cortex, DCE-treated CrT KO mice, p=0.008",reconstituted; also recorded: promotes
same,postsynaptic density protein PSD95 by Western blot,"CrT KO mice [1]; brain cortex, p=0.0096",significantly upregulated
same,KIF1A by Western blot (overexpressed in vehicle CrT KO mice),CrT KO mice [1]; cerebellum,rescued this overexpression
same,PLCB1 protein abundance by Western blot,"CrT KO mice [1]; cerebellum, DCE-treated CrT KO mice",significantly increased
same,KIF1A by Western blot (overexpressed in vehicle CrT KO mice),CrT KO mice [1]; cortex,rescued this overexpression
same,Pro-BDNF/BDNF level by Western blot,"CrT KO mice [1]; cortex, p=0.0043",higher
same,KIF1A by Western blot (overexpressed in vehicle CrT KO mice),CrT KO mice [1]; hippocampus,rescued this overexpression
same,PLCB1 protein abundance by Western blot,"CrT KO mice [1]; hippocampus, DCE-treated CrT KO mice",significantly increased
same,presynaptic IgSF8 protein abundance,CrT KO mice [2]; brain cortex,significantly upregulated
same,"ANK1 abundance (downregulated in vehicle CrT KO mice), effect of DCE treatment",CrT KO mice [2]; cerebellum,significantly rescued
same,"ANXA5 abundance (downregulated in vehicle CrT KO mice), effect of DCE treatment",CrT KO mice [2]; cerebellum,significantly rescued
same,"FABP7 abundance (upregulated in CrT KO mice), DCE-treated CrT KO vs WT",CrT KO mice [2]; cerebellum,unchanged
same,"LMNB1 abundance (upregulated in CrT KO mice), DCE-treated CrT KO vs WT",CrT KO mice [2]; cerebellum,unchanged
same,"MeCP2 abundance (downregulated in vehicle CrT KO mice), effect of DCE treatment",CrT KO mice [2]; cerebellum,significantly rescued
same,"PURB abundance (upregulated in CrT KO mice), DCE-treated CrT KO vs WT",CrT KO mice [2]; cerebellum,unchanged
same,"DCLK1 abundance (upregulated in CrT KO mice), DCE-treated CrT KO vs WT",CrT KO mice [2]; cortex,unchanged
same,"NCAM1 abundance (upregulated in CrT KO mice), DCE-treated CrT KO vs WT",CrT KO mice [2]; cortex,unchanged
same,"PI4KA abundance (upregulated in CrT KO mice), DCE-treated CrT KO vs WT",CrT KO mice [2]; cortex,unchanged
same,"PLCB1 abundance (downregulated in vehicle CrT KO mice), effect of DCE treatment",CrT KO mice [2]; cortex,significantly rescued
same,"PURB abundance (upregulated in CrT KO mice), DCE-treated CrT KO vs WT",CrT KO mice [2]; cortex,unchanged
same,"IGSF8 abundance (downregulated in vehicle CrT KO mice), effect of DCE treatment",CrT KO mice [2]; hippocampus,significantly rescued
same,"KIF1A abundance (upregulated in CrT KO mice), DCE-treated CrT KO vs WT",CrT KO mice [2]; hippocampus,unchanged
same,"L1CAM abundance (upregulated in CrT KO mice), DCE-treated CrT KO vs WT",CrT KO mice [2]; hippocampus,unchanged
same,"NCAM1 abundance (upregulated in CrT KO mice), DCE-treated CrT KO vs WT",CrT KO mice [2]; hippocampus,unchanged
same,"time observing the novel object, DCE-treated vs vehicle-treated CrT KO mice","CrT KO mice [3]; ORT 24 h, DCE intranasal once a day 4 mg/g body weight, 30 days, N=8/group, one-way ANOVA p<0.01, Tukey p<0.05",more time
same,median time (novel object) of DCE-treated group as % of the WT median value,"CrT KO mice [3]; ORT, DCE intranasal 4 mg/g once a day",96%
same,observation time of novel object compared with WT mice,"CrT KO mice [3]; ORT, DCE intranasal 4 mg/g once a day, p=0.406",no difference
same,"object discrimination index / percent time with the novel object (FIG. 2A, 2B)","CrT KO mice [3]; ORT, WT and DCE-treated, but not vehicle-treated KO mice",preference for the novel object
same,memory abilities in MWM,CrT KO mice [4],No positive effects
same,spontaneous alternation performance in Y-maze vs vehicle CrT KO mice,CrT KO mice [5]; DCE intranasal 4 mg/g once a day,higher; also recorded: significantly improved
same,alternation rate in Y-maze vs WT mice,"CrT KO mice [5]; DCE-treated CrT KO mice, P=0.058",did not differ
same,median alternation rate in Y-maze,"CrT KO mice [5]; DCE-treated CrT KO mice, vehicle 48%, WT 62%, P=0.058 vs WT",86%
